Source: ChEMBL document CHEMBL4385604, “Identification of Pyrrolo[2,3- d]pyrimidine-Based Derivatives as Potent and Orally Effective Fms-like Tyrosine Receptor Kinase 3 (FLT3) Inhibitors for Treating Acute Myelogenous Leukemia” (J Med Chem, 2019)
Calls of active or inactive are those of the source. No cut-off for these calls is given here.

Legend:
BaF3 [1] = assay: cells; details: Mus musculus, BaF3, 72 h
Description: Antiproliferative activity against mouse BAF3 cells harboring FLT3-ITD-D835V mutant measured after 72 hrs by MTT assay

MV4-11 [2] = assay: Antitumour activity against human MV4-11 cells xenografted in NOD/SCID mouse assessed as tumour growth inhibition; assay type: functional, cell-based
[3] = molecular target: T1, Receptor-type tyrosine-protein kinase FLT3 (Homo sapiens, UniProt P36888)
T1 sequence (P36888 whole entry): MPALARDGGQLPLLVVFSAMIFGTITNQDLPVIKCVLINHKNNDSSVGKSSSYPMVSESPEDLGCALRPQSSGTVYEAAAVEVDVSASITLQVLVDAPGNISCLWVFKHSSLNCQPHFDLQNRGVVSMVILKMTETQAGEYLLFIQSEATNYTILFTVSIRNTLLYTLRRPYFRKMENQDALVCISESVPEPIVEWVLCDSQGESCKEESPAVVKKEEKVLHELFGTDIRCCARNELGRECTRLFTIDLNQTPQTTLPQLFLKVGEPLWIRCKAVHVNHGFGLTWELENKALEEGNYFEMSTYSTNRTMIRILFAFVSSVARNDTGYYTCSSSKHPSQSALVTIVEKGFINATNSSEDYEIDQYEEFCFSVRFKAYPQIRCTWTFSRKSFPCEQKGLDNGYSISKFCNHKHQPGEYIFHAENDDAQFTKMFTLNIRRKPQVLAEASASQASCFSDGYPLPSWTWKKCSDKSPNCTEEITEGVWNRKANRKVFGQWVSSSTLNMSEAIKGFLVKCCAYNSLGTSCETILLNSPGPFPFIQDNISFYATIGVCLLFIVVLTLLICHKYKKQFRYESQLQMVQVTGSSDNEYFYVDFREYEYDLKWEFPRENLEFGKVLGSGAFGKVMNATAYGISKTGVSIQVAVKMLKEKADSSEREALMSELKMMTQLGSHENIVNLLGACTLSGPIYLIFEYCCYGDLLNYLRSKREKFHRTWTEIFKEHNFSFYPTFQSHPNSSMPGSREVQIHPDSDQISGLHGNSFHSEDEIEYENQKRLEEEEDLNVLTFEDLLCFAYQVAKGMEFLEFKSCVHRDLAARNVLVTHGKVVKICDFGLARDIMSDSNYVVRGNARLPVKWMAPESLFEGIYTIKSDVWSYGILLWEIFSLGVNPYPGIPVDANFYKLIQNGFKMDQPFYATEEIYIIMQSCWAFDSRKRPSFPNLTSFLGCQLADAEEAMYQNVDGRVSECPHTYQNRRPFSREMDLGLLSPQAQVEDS

MV4-11 [4] = assay: cells; details: Homo sapiens, MV4-11, 72 h
Description: Antiproliferative activity against human MV4-11 cells harboring FLT3-ITD mutant measured after 72 hrs by MTT assay

BaF3 [5] = assay: cells; details: Mus musculus, BaF3, 72 h; remark: listed apart in the source
Description: Antiproliferative activity against mouse BAF3 cells harboring FLT3-ITD-F691L mutant measured after 72 hrs by MTT assay

MOLM-13 [6] = assay: Antitumour activity against human MOLM13 cells xenografted in NOD/SCID mouse assessed as tumour growth inhibition; assay type: functional, cell-based
MOLM-13 [7] = assay: cells; details: Homo sapiens, MOLM-13, 72 h
Description: Antiproliferative activity against human MOLM13 cells harboring FLT3-ITD mutant measured after 72 hrs by MTT assay

BaF3 [8] = assay: cells; details: Mus musculus, BaF3, 72 h; remark: listed apart in the source
Description: Antiproliferative activity against mouse BAF3 cells harboring FLT3-ITD mutant measured after 72 hrs by MTT assay

RS4-11 = assay: Antiproliferative activity against human RS4:11 cells harboring wild-type FLT3 measured after 72 hrs by MTT assay; assay type: functional, cell-based; details: RS4-11, 72 h
HL-60 = assay: Antiproliferative activity against human HL60 cells harboring wild-type FLT3 measured after 72 hrs by MTT assay; assay type: functional, cell-based; details: HL-60, 72 h
[9] = Elimination half-life in Sprague-Dawley rat at 5 mg/kg, po by LC-MS/MS analysis; assay type: ADME, organism-based; details: in vivo, read-out: beta t1/2 (converted)
[10] = Tmax in Sprague-Dawley rat at 5 mg/kg, po by LC-MS/MS analysis; assay type: ADME, organism-based; details: in vivo
[11] = Oral bioavailability in Sprague-Dawley rat at 5 mg/kg by LC-MS/MS analysis; assay type: ADME, organism-based; details: in vivo
[12] = Plasma clearance in Sprague-Dawley rat at 5 mg/kg, po by LC-MS/MS analysis; assay type: ADME, organism-based

SMILES	IC50 (BaF3 [1])	IC50 [3]	IC50 (MV4-11 [4])	IC50 (BaF3 [5])	IC50 (MOLM-13 [7])	IC50 (BaF3 [8])	IC50 (RS4-11)	IC50 (HL-60)	half-life [9]	Tmax [10]	bioavailability [11]	CL/F [12]	TGI (MV4-11 [2])	TGI (MOLM-13 [6])
CC(C)(C)c1cc(NC(=O)Nc2ccc(-c3cn(CCN4CCOCC4)c4ncnc(N)c34)cc2)no1	52.4 nM	20 nM	0.329 nM	34.8 nM	1.15 nM	1.07 nM	> 1000 nM	> 1000 nM					inactive	inactive
CC(C)(C)c1cc(NC(=O)Nc2ccc(-c3cn(CC#N)c4ncnc(N)c34)cc2F)no1	86.7 nM	19 nM	0.422 nM	9.84 nM	0.73 nM	1.27 nM	> 1000 nM	> 1000 nM						
C=CCCn1cc(-c2ccc(NC(=O)Nc3cc(C(C)(C)C)on3)cc2)c2c(N)ncnc21	176 nM	38 nM	1.75 nM	91.8 nM	1.06 nM	4.92 nM	> 1000 nM	> 1000 nM						
C=CCCCn1cc(-c2ccc(NC(=O)Nc3cc(C(C)(C)C)on3)cc2)c2c(N)ncnc21	140 nM	69 nM	2.94 nM	200 nM	2.22 nM	5.95 nM	> 1000 nM	> 1000 nM						
CCOCCn1cc(-c2ccc(NC(=O)Nc3cc(C(C)(C)C)on3)cc2)c2c(N)ncnc21	173 nM	37 nM	1.47 nM	98.6 nM	0.117 nM	3.21 nM	> 1000 nM	> 1000 nM						
CCOCCn1cc(-c2ccc(NC(=O)Nc3cc(C(C)(C)C)on3)c(F)c2)c2c(N)ncnc21	55.4 nM	49 nM	1.34 nM	42.7 nM	1.55 nM	4.6 nM	> 1000 nM	> 1000 nM						
CC(C)(C)c1cc(NC(=O)Nc2ccc(-c3cn(CCCN4CCOCC4)c4ncnc(N)c34)cc2)no1	61.8 nM	9 nM	0.069 nM	32.1 nM	0.193 nM	0.99 nM	> 1000 nM	> 1000 nM					inactive	inactive
CC(C)(C)c1cc(NC(=O)Nc2ccc(-c3cn(CCN4CCNCC4)c4ncnc(N)c34)cc2)no1	156 nM	9 nM	1.75 nM	> 200 nM	2.56 nM	8.67 nM	> 1000 nM	> 1000 nM						
CN(C)CCn1cc(-c2ccc(NC(=O)Nc3cc(C(C)(C)C)on3)cc2)c2c(N)ncnc21	170 nM	17 nM	0.152 nM	85 nM	0.134 nM	1.62 nM	> 1000 nM	> 1000 nM						
CCCn1cc(-c2ccc(NC(=O)Nc3cc(C(C)(C)C)on3)cc2)c2c(N)ncnc21	41.5 nM	15 nM	0.403 nM	72.1 nM	0.736 nM	2.72 nM	> 1000 nM	> 1000 nM						

Molecules with a lower IC50 (BaF3 [1]), results first:

IC50 (BaF3 [1])	IC50 [3]	IC50 (MV4-11 [4])	IC50 (BaF3 [5])	IC50 (MOLM-13 [7])	IC50 (BaF3 [8])	IC50 (RS4-11)	IC50 (HL-60)	half-life [9]	Tmax [10]	bioavailability [11]	CL/F [12]	SMILES	TGI (MV4-11 [2])	TGI (MOLM-13 [6])
24.6 nM	6 nM	0.376 nM	19.6 nM	0.52 nM	1.6 nM	> 1000 nM	> 1000 nM					CC(C)(C)c1cc(NC(=O)Nc2ccc(-c3cn(CCC#N)c4ncnc(N)c34)cc2)no1		
21.1 nM	13 nM	0.602 nM	13.9 nM	0.262 nM	1.66 nM	> 1000 nM	> 1000 nM	2.78 h	0.83 h	40%	28.3 mL/min/kg	C#CCn1cc(-c2ccc(NC(=O)Nc3cc(C(C)(C)C)on3)cc2)c2c(N)ncnc21		
18 nM	4 nM	0.131 nM	10.7 nM	0.007 nM	0.25 nM	> 1000 nM	> 1000 nM	2.54 h	0.88 h	25.6%	56.3 mL/min/kg	CC(C)(C)c1cc(NC(=O)Nc2ccc(-c3c[nH]c4ncnc(N)c34)cc2F)no1		
14.7 nM	16 nM	0.876 nM	13.6 nM	0.14 nM	1.73 nM	> 1000 nM	> 1000 nM	2.77 h	0.31 h	9.8%	801 mL/min/kg	CC(C)(C)c1cc(NC(=O)Nc2ccc(-c3cn(CCCCO)c4ncnc(N)c34)cc2)no1		
12.2 nM	20 nM	0.1 nM	12.6 nM	0.971 nM	5.3 nM	> 1000 nM	> 1000 nM	4.22 h	0.5 h	12.1%	255 mL/min/kg	CC(C)n1cc(-c2ccc(NC(=O)Nc3cc(C(C)(C)C)on3)cc2)c2c(N)ncnc21		
9.17 nM	9 nM	0.032 nM	3.61 nM	0.038 nM	0.97 nM	> 1000 nM	> 1000 nM	3.7 h	0.44 h	11.2%	153 mL/min/kg	CC(C)(C)c1cc(NC(=O)Nc2ccc(-c3cn(CC#N)c4ncnc(N)c34)cc2)no1		
